# Laboratory results as given in patent US20170065663A1, “SUBSTANCE AND METHOD FOR TREATING INFLUENZA” (priority 2014, published 2017).
# Read-outs that look alike come from different tables or passages of the source.
# Columns and labels:
# [1] = target: T1, ECE-1 (Homo sapiens, UniProt P42892); details: cited from earlier work; for peptide present that is degraded: within 100 minutes of incubation
# T1 sequence (P42892 1-770): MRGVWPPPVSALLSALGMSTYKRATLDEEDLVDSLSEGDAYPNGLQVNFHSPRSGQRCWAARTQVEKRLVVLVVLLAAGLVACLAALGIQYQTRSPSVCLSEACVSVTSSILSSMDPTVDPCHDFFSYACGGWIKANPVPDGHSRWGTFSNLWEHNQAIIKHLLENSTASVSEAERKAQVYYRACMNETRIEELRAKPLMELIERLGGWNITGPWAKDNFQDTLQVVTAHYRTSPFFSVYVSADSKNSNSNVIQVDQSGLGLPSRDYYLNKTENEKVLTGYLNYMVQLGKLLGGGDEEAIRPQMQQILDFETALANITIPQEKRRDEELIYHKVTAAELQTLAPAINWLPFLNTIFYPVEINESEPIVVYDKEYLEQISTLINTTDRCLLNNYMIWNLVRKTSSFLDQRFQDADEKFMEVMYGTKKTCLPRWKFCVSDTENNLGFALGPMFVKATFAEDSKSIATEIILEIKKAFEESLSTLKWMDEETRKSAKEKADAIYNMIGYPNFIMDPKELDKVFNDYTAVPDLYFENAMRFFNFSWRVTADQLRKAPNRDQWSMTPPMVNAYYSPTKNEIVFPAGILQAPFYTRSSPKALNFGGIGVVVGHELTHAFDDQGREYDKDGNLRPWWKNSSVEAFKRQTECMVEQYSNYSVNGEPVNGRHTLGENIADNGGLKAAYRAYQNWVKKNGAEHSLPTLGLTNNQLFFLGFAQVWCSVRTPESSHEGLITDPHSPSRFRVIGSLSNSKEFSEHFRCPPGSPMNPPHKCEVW
# [2] = Example I: degradation in IMDM media with 2.5% fetal bovine serum
# [3] = Example II: degradation of further Substance P analogs in IMDM media with 2.5% fetal bovine serum; details: 72 hours, present tense
# [4] = tested on: influenza virus subtypes H1N1, H3N2, H5N1 and H7N9; parameters: species or system mice, cotton rats and ferrets; details: in vivo
# [5] = tested on: influenza virus subtypes H1N1, H3N2, H5N1 and H7N9; parameters: species or system mice, cotton rats and ferrets; details: in vivo; remark: listed apart in the source
# [6] = tested on: Influenza/A/Wuhan/359/95; parameters: species or system cotton rats (Sigmodon Hispidus); details: rat, in vivo
# [7] = tested on: Influenza/A/Wuhan/359/95; parameters: species or system cotton rats (Sigmodon Hispidus); details: rat, in vivo; remark: listed apart in the source
Compound,"additional degradation after long incubation ([1]; 195 nM ECE-1, 1200 minutes post-incubation)",time for 50% of the peptide present to become degraded ([1]; 195 nM ECE-1) [min],peptide present that is degraded ([1]; 195 nM ECE-1),remaining at 72 h [2] [%],initial concentration recovered [3] [%],flu-related symptoms compared with placebo [4],flu-related symptoms compared with placebo [5],symptom reduction compared with subjects treated with an enumerated Substance P analog [5],body weight change following infection [6],body weight loss [7],pulmonary inflammation (alveolitis and interstitial inflammation) [7]
CC(C)C[C@H](NC(=O)CN(C)C(=O)[C@H](Cc1ccccc1)NC(=O)[C@H](Cc1ccccc1)NC(=O)[C@H](CCC(N)=O)NC(=O)[C@H](CCC(N)=O)NC(=O)[C@@H]1CCCN1C(=O)[C@H](CCCCN)NC(=O)[C@@H]1CCCN1C(=O)[C@@H](N)CCCNC(=N)N)C(=O)N[C@@H](CCS(C)(=O)=O)C(N)=O,no additional degradation occurs,~300,about 20%,59,,,,,,,
CSCC[C@H](NC(=O)[C@H](CC(C)C)NC(=O)CNC(=O)[C@H](Cc1ccccc1)NC(=O)[C@H](Cc1ccccc1)NC(=O)[C@H](CCC(N)=O)NC(=O)[C@H](CCC(N)=O)NC(=O)[C@@H]1CCCN1C(=O)[C@H](CCCCN)NC(=O)[C@@H]1CCCN1C(=O)[C@@H](N)CCCN=C(N)N)C(N)=O [Substance P],,,~100%,24,24,,,,,,
"CCOC(=O)C1=C[C@@H](OC(CC)CC)[C@H](NC(C)=O)[C@@H](N)C1 [Tamiflu®, oseltamivir]",,,,,,fewer flu-related symptoms,fewer flu-related symptoms,do not exhibit the symptom reduction produced in the subjects treated with one of the enumerated Substance P analogs,greater loss in body weight than mock-treated/infected animals,recover from weight-loss quicker than vehicle-treated controls,did not appear to affect pulmonary inflammation
